Measured values from PubChem BioAssay AID328 (DTP/NCI, 2004).
Where “and” joins values, the source holds several entries; their conditions need not be identical. Equal values may be shown once. Toxic doses and inconclusive results are not listed. The calls were made as follows: active = survival T/C of 150% or more; inactive = T/C below 125% in these data.

Tested on: BDF1 mice, P388 leukemia ip, median survival T/C
Assay: NCI In Vivo Anticancer Drug Screen. Data for tumor model P388 Leukemia (intraperitoneal) in B6D2F1 (BDF1) mice
Settings: endpoint: median survival time, higher = longer survival
Method in brief: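 Reported as T/C, where T is the survival measurement in dosed animals and C the same measurement in vehicle controls.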

[1] = dose: 50.0 mg/kg/injection, schedule: Q01DX009 (ip), vehicle: saline with Tween-80
[2] = dose: 100.0 mg/kg/injection, schedule: Q01DX009 (ip), vehicle: saline with Tween-80
[3] = dose: 200.0 mg/kg/injection, schedule: Q01DX009 (ip), vehicle: saline with Tween-80
[4] = dose: 100.0 mg/kg/injection, schedule: Q04DX003 (ip), vehicle: Klucel (hydroxypropylcellulose) (HPC)
[5] = dose: 200.0 mg/kg/injection, schedule: Q04DX003 (ip), vehicle: Klucel (hydroxypropylcellulose) (HPC)
[6] = dose: 50.0 mg/kg/injection, schedule: Q04DX003 (ip), vehicle: Klucel (hydroxypropylcellulose) (HPC)
[7] = dose: 50.0 mg/kg/injection, schedule: Q04DX003 (ip), vehicle: saline
[8] = dose: 100.0 mg/kg/injection, schedule: Q04DX003 (ip), vehicle: saline
[9] = dose: 200.0 mg/kg/injection, schedule: Q04DX003 (ip), vehicle: saline
[10] = dose: 100.0 mg/kg/injection, schedule: Q01DX009 (ip), vehicle: saline
[11] = dose: 200.0 mg/kg/injection, schedule: Q01DX009 (ip), vehicle: saline
[12] = dose: 12.5 mg/kg/injection, schedule: Q01DX009 (ip), vehicle: Klucel (hydroxypropylcellulose) (HPC)
[13] = dose: 25.0 mg/kg/injection, schedule: Q01DX009 (ip), vehicle: Klucel (hydroxypropylcellulose) (HPC)
[14] = dose: 25.0 mg/kg/injection, schedule: Q04DX003 (ip), vehicle: Klucel (hydroxypropylcellulose) (HPC)
[15] = dose: 50.0 mg/kg/injection, schedule: Q01DX005 (ip), vehicle: saline
[16] = dose: 100.0 mg/kg/injection, schedule: Q01DX005 (ip), vehicle: saline
[17] = dose: 25.0 mg/kg/injection, schedule: Q01DX009 (ip), vehicle: saline with Tween-80
[18] = dose: 50.0 mg/kg/injection, schedule: Q01DX009 (ip), vehicle: Klucel (hydroxypropylcellulose) (HPC)

Measured: T/C

NC(=O)c1ccc(N)nc1
inactive: dose: 6.25 mg/kg/injection, schedule: Q04DX003 (ip), vehicle: saline 121 % of control | dose: 8.33 mg/kg/injection, schedule: Q04DX003 (ip), vehicle: saline with Tween-80 100 % of control | dose: 12.5 mg/kg/injection, schedule: Q04DX003 (ip), vehicle: saline with Tween-80 100 % of control | dose: 18.75 mg/kg/injection, schedule: Q04DX003 (ip), vehicle: saline with Tween-80 105 % of control and 108 % of control | dose: 25.0 mg/kg/injection, schedule: Q04DX003 (ip), vehicle: saline 114 % of control

CN1CC([N+](=O)[O-])C(=O)C([N+](=O)[O-])C1 (configuration not stated)
inactive: dose: 50.0 mg/kg/injection, schedule: Q01DX005 (ip), vehicle: saline with Tween-80 92 % of control | dose: 100.0 mg/kg/injection, schedule: Q01DX005 (ip), vehicle: saline with Tween-80 87 % of control | dose: 200.0 mg/kg/injection, schedule: Q01DX005 (ip), vehicle: saline with Tween-80 103 % of control

CC(C)c1cccc(C(C)C)c1NC(=O)N1CCOCC1
inactive: [1] 100 % of control | [2] 93 % of control | [3] 90 % of control

OC(COc1ccccc1)CC(O)(C(F)(F)F)C(F)(F)F (configuration not stated)
inactive: dose: 100.0 mg/kg/injection, schedule: Q01DX001 (ip), vehicle: saline with Tween-80 95 % of control | dose: 200.0 mg/kg/injection, schedule: Q01DX001 (ip), vehicle: saline with Tween-80 104 % of control | dose: 400.0 mg/kg/injection, schedule: Q01DX001 (ip), vehicle: saline with Tween-80 104 % of control

C/C(N=Nc1ccccc1[N+](=O)[O-])=N\Nc1ccccc1
inactive: [4] 122 % of control | [5] 122 % of control | dose: 400.0 mg/kg/injection, schedule: Q04DX003 (ip), vehicle: Klucel (hydroxypropylcellulose) (HPC) 113 % of control

Nc1ccc(Nc2ccncc2)cc1
inactive: [6] 100 % of control | [4] 95 % of control | [5] 90 % of control

Cc1nc2cnn(C)c2nc1C
inactive: [7] 114 % of control | [8] 113 % of control | [9] 107 % of control | dose: 400.0 mg/kg/injection, schedule: Q04DX003 (ip), vehicle: saline 88 % of control

C/C(=C\Br)CO
inactive: [7] 90 % of control | [10] 105 % of control | [8] 105 % of control | [11] 95 % of control | [9] 90 % of control

COC(=O)c1cc([N+](=O)[O-])c(Cl)c([N+](=O)[O-])c1
inactive: dose: 6.25 mg/kg/injection, schedule: Q01DX009 (ip), vehicle: Klucel (hydroxypropylcellulose) (HPC) 109 % of control | [12] 104 % of control | [13] 100 % of control | [14] 100 % of control | [6] 105 % of control

Cc1ccc(S(=O)(=O)OCC2C3CCCC2C3)cc1 (configuration not stated)
inactive: [1] 101 % of control | [2] 100 % of control | [3] 96 % of control

CN(C)CCC(=O)C(=Cc1ccc(Cl)c(Cl)c1)C(=O)CCN(C)C
inactive: [15] 109 % of control | [16] 114 % of control

c1ccc2c[n+]3ccccc3cc2c1
inactive: dose: 6.25 mg/kg/injection, schedule: Q01DX009 (ip), vehicle: saline 95 % of control | dose: 8.75 mg/kg/injection, schedule: Q04DX003 (ip), vehicle: saline 100 % of control | [12] 100 % of control | dose: 12.5 mg/kg/injection, schedule: Q01DX009 (ip), vehicle: saline 104 % of control | dose: 17.5 mg/kg/injection, schedule: Q04DX003 (ip), vehicle: saline 95 % of control | [13] 95 % of control

CCOC(=O)c1ccccc1S(=O)(=O)c1ccccc1C(=O)OCC
inactive: [1] 106 % of control | [2] 100 % of control | [3] 112 % of control

O=[N+]([O-])c1cc[n+]([O-])c(Br)c1
inactive: [1] 90 % of control | dose: 100.0 mg/kg/injection, schedule: Q04DX003 (ip), vehicle: saline with Tween-80 100 % of control | [3] 87 % of control | dose: 200.0 mg/kg/injection, schedule: Q04DX003 (ip), vehicle: saline with Tween-80 90 % of control

COc1cccc2c1C(=O)c1c(O)c3c(c(O)c1C2=O)C[C@@](O)(C(=O)CO)C[C@@H]3OC1CC(NC(=O)C(F)(F)F)C(O)C(C)O1 (some centres not stated)
inactive: dose: 3.13 mg/kg/injection, schedule: Q04DX009 (ip), vehicle: other 113 % of control | dose: 6.25 mg/kg/injection, schedule: Q04DX009 (ip), vehicle: other 121 % of control | dose: 12.5 mg/kg/injection, schedule: Q04DX009 (ip), vehicle: other 123 % of control

CCN1CSC(=S)N(CC)C1
inactive: [12] 110 % of control | [13] 110 % of control | [17] 109 % of control | [14] 95 % of control | dose: 37.5 mg/kg/injection, schedule: Q01DX009 (ip), vehicle: saline with Tween-80 109 % of control | [18] 110 % of control | [1] 109 % of control | [6] 87 % of control | dose: 75.0 mg/kg/injection, schedule: Q01DX009 (ip), vehicle: saline with Tween-80 119 % of control | [2] 122 % of control

CC1CN(Cc2ccccc2)CC(C)N1 (configuration not stated)
inactive: dose: 50.0 mg/kg/injection, schedule: Q04DX003 (ip), vehicle: water 106 % of control | dose: 100.0 mg/kg/injection, schedule: Q04DX003 (ip), vehicle: water 104 % of control | dose: 200.0 mg/kg/injection, schedule: Q04DX003 (ip), vehicle: water 92 % of control

CSc1cc(C)c(O)c(CO)c1
inactive: dose: 100.0 mg/kg/injection, schedule: Q01DX009 (ip), vehicle: other 100 % of control | dose: 200.0 mg/kg/injection, schedule: Q01DX009 (ip), vehicle: other 95 % of control | dose: 400.0 mg/kg/injection, schedule: Q01DX009 (ip), vehicle: other 95 % of control

CCC(CC)c1ccccn1
inactive: dose: 50.0 mg/kg/injection, schedule: Q01DX009 (ip), vehicle: saline 104 % of control | dose: 100.0 mg/kg/injection, schedule: Q01DX009 (ip), vehicle: carboxymethylcellulose (CMC) 99 % of control | [10] 105 % of control | dose: 200.0 mg/kg/injection, schedule: Q01DX009 (ip), vehicle: carboxymethylcellulose (CMC) 108 % of control | [11] 113 % of control

C=C1C(=O)OC2C3OC(C)(CCC(OC(C)=O)C3COC(C)=O)CC(OC(=O)/C(=C\C)COC(C)=O)C12 (configuration not stated)
inactive: [13] 106 % of control | [18] 106 % of control | dose: 100.0 mg/kg/injection, schedule: Q01DX009 (ip), vehicle: Klucel (hydroxypropylcellulose) (HPC) 118 % of control

CCOC(=O)C(C(C)=O)C(C)C (configuration not stated)
inactive: dose: 100.0 mg/kg/injection, schedule: Q01DX005 (ip), vehicle: other 112 % of control | dose: 200.0 mg/kg/injection, schedule: Q01DX005 (ip), vehicle: other 117 % of control | dose: 400.0 mg/kg/injection, schedule: Q01DX005 (ip), vehicle: other 109 % of control

CC(NC=O)C(=O)NC(CC(=O)O)C(=O)O (configuration not stated)
inactive: [15] 95 % of control | [16] 93 % of control | dose: 200.0 mg/kg/injection, schedule: Q01DX005 (ip), vehicle: saline 89 % of control

O=C1CC2C3Nc4ccccc4C3CCN2C2=C1CC(OC(=O)c1ccccc1)CC2 (configuration not stated)
inactive: [1] 104 % of control | [2] 104 % of control | [3] 86 % of control

O=[N+]([O-])c1ccc(S(=O)(=O)N/N=C\c2ccc(Cl)c(Cl)c2)cc1
inactive: dose: 12.5 mg/kg/injection, schedule: Q01DX009 (ip), vehicle: saline with Tween-80 95 % of control | [17] 92 % of control | [1] 100 % of control

FC(F)(F)C(Cl)Br (configuration not stated)
inactive: dose: 100.0 mg/kg/injection, schedule: Q01DX001 (ip), vehicle: saline 90 % of control | dose: 150.0 mg/kg/injection, schedule: Q04DX003 (ip), vehicle: saline 86 % of control | dose: 200.0 mg/kg/injection, schedule: Q01DX001 (ip), vehicle: saline 90 % of control | dose: 225.0 mg/kg/injection, schedule: Q04DX003 (ip), vehicle: saline 100 % of control | dose: 335.0 mg/kg/injection, schedule: Q04DX003 (ip), vehicle: saline 86 % of control | dose: 400.0 mg/kg/injection, schedule: Q01DX001 (ip), vehicle: saline 100 % of control
